Legend:
[1] = system: calcium level in serum; assay: Prevention of hypercalcemia in rats administered with 1-α-(OH)-D3 (Example 4); assay type: in vivo, male Wistar rats; details: 1-α-(OH)-D3 10 µg/kg i.p. alone
Source text: In the present example, it is shown that 24R,25-(OH)2 -D3 has a function of preventing the occurrence of hypercalcemia on rats administered with 1-α-hydroxycholecalciferol (hereinafter referred to as 1-α-(OH)-D3).
Six subgroups of male Wistar rats of 130±30 g of body weight were subjected to the test while dividing the rats into 3 groups, each group consisting of 2 subgroups and each subgroup consisting of 5 animals. To the rats of the first group, after fasting for a night, an ethanolic solution of 1-α-(OH)-D3 was intraperitoneally administered at a dose rate of 10 micrograms of 1-α-(OH)-D3 /kg body weight. To the rats of the second group, a solution of 24R,25-(OH)2 -D3 in the triglyceride ester used in Example 1 was orally administered at a dose rate of 100 micrograms/kg body weight simultaneously with the same administration of 1-α-(OH)-D3 as in the rats of the first group.
The third group of the rats was used for control only with the oral administration of the triglyceride ester used in Example 1.

[2] = system: ulcer found on the duodenum; assay: Healing of acetic acid induced duodenal ulcer (Example 10); assay type: in vivo, male rats; details: 20 µg/kg/day oral, 10 days
Experimental: Fourty five male rats of body weight of 240 to 260 g were equally divided into three groups, each consisting of 15 animals, and they were subjected to an operation following the method of Okabe et al. (refer to Amer. J. Dig. Dia., 16, 277, 1971), in which under anesthesia by ether, a circular frame made of a metal was placed on the serosa 5 to 7 mm from the pylorus and 0.06 ml of gracial acetic acid was poured onto the round part within the frame and after 30 sec, the acetic liquid was removed with the frame.
The thus operated rats of the first group were administered orally with a suspension of […] of 24R,25-(OH)2 -D3 in Panacete®810 containing 0.2% by weight of ethanol once a day for continuous 10 days from the third day of the operation at a daily dose rate of 20 micrograms of 24R,25-(OH)2 -D3 /kg. To the thus operated rats of the second group (control), only Panacete®810 was orally administered at a daily dose rate of 2 ml/kg for continuous 10 days.
The thus operated rats of the third group were used in the comparative test. Namely, they were treated in the same manner as those of the first group except for administration of gefarnate (3,7-dimethyl-2,6-octadienyl-5,9,13-trimethyl-4,8,12-tetradecatrienoate) at a daily dose rate of 20 microgram/kg body weight in stead of 24R,25-(OH)2 -D3 in the first group.
After finishing the final administration, all the rats were sacrificed by ether and their duodenum was taken out for autopsy. The length and the width of the ulcer found on the duodenum were measured, and their product with a unit of mm^2 was taken and named as the ulcer coefficient. The rate of healing of the ulcer was calculated by the following formula: [formula] wherein C is the ulcer coefficient of control and U is the ulcer coefficient of the group to which the present compound was administered.

SMILES | Calcium level in serum ([1]; after 10 hours) | Calcium level in serum ([1]; after 18 hours) | ulcer coefficient [2] | rate of ulcer healing ([2]; vs control)
C=C1/C(=C\C=C2/CCC[C@]3(C)[C@@H]([C@H](C)CCCC(C)C)CC[C@@H]23)C[C@@H](O)C[C@@H]1O [1-α-(OH)--D3, 1-α-hydroxycholecalciferol, reference compound] | 13.4 ± 0.6 mg/dL | 14.5 ± 0.5 mg/dL | – | –
CC(C)=CCCC(C)=CCCC(C)=CCCC(=O)OCC=C(C)CCC=C(C)C [gefarnate, 3,7-dimethyl-2,6-octadienyl-5,9,13-trimethyl-4,8,12-tetradecatrienoate, reference compound] | – | – | 7.5 mm^2 | 0%
